This assay deals with T1, SpoIVB (sporulation factor IV B protease) (Bacillus subtilis, UniProt P17896, S378A).
T1 construct: truncated SpoIVB (residues Thr75-Ser426), N-terminal 6 × His and mMBP fusion tags
Kind of assay: microscale thermophoresis (MST), RED-NHS labelled protein. Format: binding.

T1 sequence (P17896 75-426 S378A): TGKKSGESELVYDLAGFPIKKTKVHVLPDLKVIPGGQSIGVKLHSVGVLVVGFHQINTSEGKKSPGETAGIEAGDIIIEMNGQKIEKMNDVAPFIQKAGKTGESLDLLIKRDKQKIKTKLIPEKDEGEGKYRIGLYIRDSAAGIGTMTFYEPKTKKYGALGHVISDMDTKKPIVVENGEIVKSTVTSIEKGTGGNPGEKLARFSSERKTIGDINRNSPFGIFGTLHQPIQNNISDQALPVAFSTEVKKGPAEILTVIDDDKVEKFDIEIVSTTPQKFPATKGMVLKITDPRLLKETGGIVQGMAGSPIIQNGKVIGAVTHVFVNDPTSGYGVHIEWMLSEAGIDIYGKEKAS

The molecule `N=C(N)c1ccccc1` [benzamidine] yielded a Kd of 660 ± 28 µM.

For orientation: Kd means the concentration at which binding is half-saturated. A high value points to weaker binding.

The values are drawn from article PMC6581720 (Frontiers in Microbiology, 2019).
